In PMC10526854, “Shikonin and Juglone Inhibit Mycobacterium tuberculosis Low-Molecular-Weight Protein Tyrosine Phosphatase a (Mt-PTPa)” (BioTech, 2023):

Tests used:
[1] = biological target: T1, Mt-PTPa (Mycobacterium tuberculosis, UniProt P9WIA1); assay: Mt-PTPa phosphatase activity inhibition assay (hydrolysis of p-nitrophenyl phosphate, A405); format: biochemical; settings: for IC50 / Ki / inhibition of Mt-PTPa compared with vanadate: Mt-PTPa 10 µM; for IC50 / inhibition of Mt-PTPa compared with vanadate: pNPP 100 µM; for IC50: 37 °C, 10 min, compound 0-1000 µM, mean ± SD (n = 3); for Ki: Dixon plot analysis, inhibitor 0-100 µM, read-out: KI (inhibitor constant); for Ki / inhibition pattern (mechanism): pNPP 0.25-2.50 mM; for inhibition of Mt-PTPa compared with vanadate: at 25 and 50 µM; for inhibition pattern (mechanism): double-reciprocal analysis
T1 construct: made in house; host or cells: E. coli BL21(DE3)pLysS

[2] = tested on: N-formyl-L-methionyl-L-leucyl-L-phenylalanine-induced protein tyrosine phosphorylation; design: method as in PMID 9175722; settings: in neutrophils; cited from earlier work
[3] = biological target: protein tyrosine phosphatase 1B (PTP1B); design: method as in PMID 34208908; settings: in vitro; cited from earlier work

T1 sequence (P9WIA1 whole entry): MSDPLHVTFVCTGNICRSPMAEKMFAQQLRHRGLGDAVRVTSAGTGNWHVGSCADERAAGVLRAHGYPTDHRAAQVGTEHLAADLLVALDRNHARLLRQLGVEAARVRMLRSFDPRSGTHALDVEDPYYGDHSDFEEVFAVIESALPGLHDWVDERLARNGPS

Structure (SMILES): O=c1c(O)c(-c2cc(O)c(O)c(O)c2)oc2cc(O)cc(O)c12 [Myricetin, myricetin]
- initial library screen outcome [1]: hits
- IC50 [1]: 250 ± 25 µM

Structure (SMILES): O=C1C=CC(=O)c2c(O)cccc21 [Juglone, 5-hydroxy-1,4-naphthalenedione]
- Ki [1]: 12.5 µM
- inhibition of Mt-PTPa compared with vanadate [1]: comparable levels of inhibition to vanadate
- inhibition pattern (mechanism) [1]: non-competitive

Structure (SMILES): CC(=O)O[C@H](CC=C(C)C)C1=CC(=O)c2c(O)ccc(O)c2C1=O [acetylshikonin]
- reduction of protein tyrosine phosphorylation [2]: 90%

Structure (SMILES): CC(C)=CC[C@@H](O)C1=CC(=O)c2c(O)ccc(O)c2C1=O [Shikonin, 5,8-dihydroxy-2-[(1R)-1-hydroxy-4-methyl-3-pentenyl]-1,4-naphthoquinone]
- initial library screen outcome [1]: hits
- Ki [1]: 8.5 µM
- IC50 [1]: 33 ± 7 µM
- inhibition of Mt-PTPa compared with vanadate [1]: comparable levels of inhibition to vanadate
- inhibition pattern (mechanism) [1]: non-competitive
- IC50 [3]: 15.5 µM

Structure (SMILES): O=C(/C=C/c1ccc(O)c(O)c1)O[C@H](Cc1ccc(O)c(O)c1)C(=O)O [Rosmarinic Acid, rosmarinic acid]
- initial library screen outcome [1]: hits
- IC50 [1]: 900 ± 132 µM

Structure (SMILES): Oc1cc(O)c2c(c1)O[C@H](c1cc(O)c(O)c(O)c1)[C@H](O)C2 [Epigallocatechin, epigallocatechin]
- initial library screen outcome [1]: hits
- IC50 [1]: 492 ± 101 µM

Structure (SMILES): C[C@H]1[C@H](C)CC[C@]2(C(=O)O)CC[C@]3(C)C(=CC[C@@H]4[C@@]5(C)CC[C@H](O)C(C)(C)[C@@H]5CC[C@]43C)[C@H]12 [ursolic acid, reference compound]
- IC50 [3]: 8.72 µM
